Results on three compounds are retold here after patent US10258701B2, “Labeled evans blue dye derivative for in vivo serum albumin labeling” (The United States of America, as represented by the …, priority 2015, dated 2019).

Series [1] deals with T1, albumin (Homo sapiens, UniProt P02768). Description: Absorbance and fluorescence emission of Evans blue with and without albumin. The format is physicochemical. The text has this:
FIGS. 1A and 1B show the absorbance and fluorescence emission of Evans blue with and without albumin. […] Evans blue is almost not fluorescent without albumin.
After forming a complex with serum albumin, both NEB and EB became fluorescent. Since only trace amount of NEB was mixed with EB, the majority of the fluorescence came from EB. […] With optical imaging, the migration of the injected EB/NEB in lymphatics could be clearly observed after local injection. The fluorescence signal first reached the popliteal LN then migrated to the sciatic LN (FIG. 22). Ninety min after tracer injection, both LNs were clearly visualized by fluorescence optical imaging. Under bright light, apparent blue dye accumulation could also be seen by the naked eye (FIGS. 23A and 23B). PET and optical imaging were also performed with the same animal after injection of ^18F-AlF-NEB/EB. An overlay of the two images provided high positional correlation of the LNs (FIGS. 24A and 24B).

A further series deals with lymph nodes. As to the kind of experiment: Amount of EB dye in lymph nodes after local co-injection of 18F-AlF-NEB and EB. The conditions noted are these: ex vivo. On the procedure: Ninety min after local injection, both popliteal LN sites could be distinguished clearly by the apparent blue color, indicating the local accumulation of the dye molecules. The left sciatic LNs could also be seen but with much lower uptake of dye (FIGS. 19A and 19B). There was significant difference in weight between the popliteal LNs on the tumor side and the contralateral side but not between the sciatic LNs (popliteal LNs: 3.582±0.762 vs. 1.995±0.759 mg, p<0.05; sciatic LNs: 1.558±0.731 vs. 1.403±0.632 mg, p>0.05) (FIG. 20). […] However, there was no difference in the amount of EB between two sciatic LNs (0.030±0.008 μg vs. 0.028±0.015 μg, p>0.05). These ex vivo results were consistent with in vivo PET data.

The next series deals with platelet aggregation. The conditions noted are these: cited from earlier work.
The target in series [2] is T1, albumin. As to the kind of experiment: Saturation binding assay of NEB with albumin (bound/unbound separated by agarose gel electrophoresis). The conditions noted are these: unbound NEB quantified, read-out: dissociation constant (Kd) of NEB to albumin. The text has this: In a particular embodiment, the compound of formula (I) (also referred to herein as “NEB”) wherein n is 0 can be synthesized in two steps starting from o-tolidine as shown in Scheme 1. 1, 4, 7-triazacyclononane-N,N,N″-triacetic acid-3HCl (“NOTA”) was first coupled to o-tolidine using diethyl cyanophosphonate to give NOTA-o-tolidine in 26% yield after preparative reversed-phase HPLC. NOTA-o-tolidine was then coupled to 1-amino-8-naphthol-2,4-disulfonic acid to give NEB through the formation of diazonium salt with a yield of 46.6%. The purity of the product was >98% based on HPLC analysis and the identity of the product was confirmed by LC-MS. This truncated version of Evans blue retained the binding ability with albumin since stable NEB/albumin complex was confirmed by LC/MS. The complex formation was also confirmed by saturation binding assay. The bound NEB could be separated from the unbound NEB using agarose gel electrophoresis. […] The ^18F-AlF complex of NEB is also referred to herein as ^18F-AlF-NEB. The ^64CU complex of NEB is also referred to herein as ^64Cu-NEB.

The conditions of series [3]: human, in vivo.
Protocol: A dosimetry study was also performed based on the PET imaging data.
A further series relates to UM-22B tumors. The arrangement: species or system mice. The following applies: female, athymic nude, mouse, in vivo. As for the experimental part:
All animal studies were conducted in accordance with the principles and procedures outlined in the Guide for the Care and Use of Laboratory Animals and were approved by the Institutional Animal Care and Use Committee of the Clinical Center, NIH. The UM-22B human head and neck carcinoma cancer cell line was grown in DMEM medium supplemented with 10% fetal bovine serum (FBS), 100 IU/mL penicillin, and 100 μg/mL streptomycin (Invitrogen), and in a humidified atmosphere containing 5% CO2 at 37° C. The tumor model was developed in 5 to 6 week old female athymic nude mice (Harlan Laboratories) by injection of 5×10^6 cells into their right shoulders. The mice underwent small-animal PET studies when the tumor volume reached 100-300 mm^3 (2-3 weeks after inoculation).
PET scans and image analysis were performed using an Inveon small animal PET scanner (Siemens Medical Solutions). About 3.7 MBq of ^18F-AlF-NEB or ^18F-FB-Albumin or 7.4 MBq of ^64Cu-NEB was administered via tail vein injection under isoflurane anesthesia. For normal mice, 60-min dynamic PET scans were acquired. For tumor mice, 60-min dynamic PET scans were acquired, followed by a series of late time point scans at 2, 4, and 24 h (^64Cu only) after tracer injection. With acute inflammation model, 5-min static PET images were acquired at 30 min, 1 h and 2 h postinjection (n=3-5 per group). The images were reconstructed using a two-dimensional ordered-subset expectation maximum (2D OSEM) algorithm, and no correction was applied for attenuation or scatter. For each scan, regions of interest (ROIs) were drawn using vendor software (ASI Pro 5.2.4.0) on decay-corrected whole-body coronal images. The radioactivity concentrations (accumulation) within the heart, muscle, liver, and kidneys were obtained from mean pixel values within the multiple ROI volume and then converted to MBq per milliliter. These values were then divided by the administered activity to obtain (assuming a tissue density of 1 g/ml) an image-ROI-derived percent injected dose per gram (% ID/g).
Malignant tumors are characterized by torturous blood vessels and high vascular permeability. Besides, the anti-angiogenesis and “normalization” of tumor vasculature have been intensively investigated. Unlike radiolabeled RBCs, albumin can be used to study vascular permeability in tumors. NEB was labeled with ^64Cu, a positron emitter with longer half-life (t1/1=12.6 h) than ^18F (t1/2=109.8 min). A UM-22B xenograft model was developed and performed 60-min dynamic scan and then static scans at late time points up to 24 h. The in vivo distribution of ^64Cu-NEB was very similar to that of ^18F-AlF-NEB with most of radioactivity retained in the circulation system (FIG. 4A). Even at 4 h after tracer injection, radioactivity within heart region and major vessels was still dominant. […] At 24 h after tracer injection, the tumor uptake was still at a relatively high level (8.07±1.01% ID/g). The tracer uptake over the heart region was 16.09±0.51% ID/g at 1 h p.i., which dropped to 8.58±0.81% ID/g at 24 h (FIG. 5B).

[4] abbreviates: ninety min after local injection.

Several values for one entry are separate records, joined by “and”; a condition that tells them apart may be missing. Equal values may be shown once. Read-outs that look alike come from different tables or passages of the source.

T1 sequence (P02768 25-609, species assumed): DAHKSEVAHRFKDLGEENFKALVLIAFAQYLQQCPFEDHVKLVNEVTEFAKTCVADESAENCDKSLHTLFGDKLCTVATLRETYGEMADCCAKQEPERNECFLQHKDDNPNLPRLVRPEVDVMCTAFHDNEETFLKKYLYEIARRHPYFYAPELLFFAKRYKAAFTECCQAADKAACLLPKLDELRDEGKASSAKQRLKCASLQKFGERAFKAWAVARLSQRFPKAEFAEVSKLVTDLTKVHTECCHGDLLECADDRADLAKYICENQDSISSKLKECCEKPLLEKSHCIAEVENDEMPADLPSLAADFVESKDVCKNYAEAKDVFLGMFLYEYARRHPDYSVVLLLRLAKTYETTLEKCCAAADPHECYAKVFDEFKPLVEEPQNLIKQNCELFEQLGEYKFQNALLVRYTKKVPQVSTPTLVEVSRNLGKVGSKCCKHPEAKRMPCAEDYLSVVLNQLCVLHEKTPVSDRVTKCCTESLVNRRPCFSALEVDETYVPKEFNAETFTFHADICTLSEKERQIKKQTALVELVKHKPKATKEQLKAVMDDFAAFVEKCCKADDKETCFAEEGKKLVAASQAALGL

For `Cc1cc(-c2ccc(/N=N/c3ccc4c(S(=O)(=O)O)cc(S(=O)(=O)O)c(N)c4c3O)c(C)c2)ccc1/N=N/c1ccc2c(S(=O)(=O)O)cc(S(=O)(=O)O)c(N)c2c1O` [EB, Evans blue], the fluorescence emission peak on albumin [1] (only with albumin) stood at 680 nm. The compound further yielded an absorbance peak at albumin [1] (with or without albumin) of 620 nm. The “amount of EB in sciatic LNs, first value of the pair” value with lymph nodes (presumably left side) was determined as 0.030 ± 0.008 µg. The “amount of EB in sciatic LNs, second value of the pair” value with lymph nodes (presumably right side) amounted to 0.028 ± 0.015 µg. For the same compound, in the series on lymph nodes (setting [4]), the “amount of EB dye in left popliteal LNs” value came to 0.144 ± 0.034 µg and the “amount of EB dye in right popliteal LNs” value came to 0.091 ± 0.029 µg. Besides, in the series on platelet aggregation, the “threshold concentration for induction of platelet aggregation” value is listed as “about 100 μM”.
As a reminder, the Kd is the concentration at which binding is half-saturated. Consider `Cc1cc(-c2ccc(NC(=O)CN3CCN(CC(=O)O)CCN(CC(=O)O)CC3)c(C)c2)ccc1N=Nc1ccc2c(S(=O)(=O)O)cc(S(=O)(=O)O)c(N)c2c1O` [NEB], for which the Kd on albumin [2] is 48.9 µM and ~50 µM.
As to `Cc1cc(-c2ccc(NC(=O)CN3CCN4CCN(CC3)CC(=O)[O][64Cu][O]C(=O)C4)c(C)c2)ccc1N=Nc1ccc2c(S(=O)(=O)O)cc(S(=O)(=O)O)c(N)c2c1O` [^64Cu-NEB], in series [3], the “absorbed dose, red bone marrow” value came to 6.14 mSv. Also, the results for the “tracer uptake over the heart region” value in the series with UM-22B tumors (1 h) and with UM-22B tumors (24 h) were 16.09±0.51 % ID/g and 8.58±0.81 % ID/g, respectively. Moreover, the tumor uptake in the series on UM-22B tumors (1 h) was found to be 5.73±1.11 % ID/g; with UM-22B tumors (2 h), 8.03±0.77 % ID/g; with UM-22B tumors (24 h) it was 8.07±1.01 % ID/g.
